Measurements taken from patent US20230303506A1, “COMPOSITIONS AND METHODS FOR THE PREVENTION AND/OR TREATMENT OF MITOCHONDRIAL DISEASE, INCLUDING FRIEDREICH'S ATAXIA” (Stealth BioTherapeutics Inc., priority 2019, published 2023).
pEC50: −log10 of the molar value. “Also recorded” adds a separate entry of the source.

Legend:
HepG2 cells = test: Rotenone Oxygraph Assay (high-resolution respirometry of intact HepG2 cells); assay type: cell-based, human; conditions: for Percent increase in ATP (Rotenone Oxygraph Assay), Mean: Table 4, intact HepG2 cells, change in respiration rate; for Percent increase in ATP (Rotenone Oxygraph Assay), Mean / Rotenone Oxygraph Assay % Increase: 1 μM rotenone, compound 10 μM; for Rotenone Oxygraph Assay % Increase: Table 7
Protocol: The Oxygraph-2 k (O2k, OROBOROS INSTRUMENTS, Austria) was used for measurements of respiration of intact cells. The respirometry was performed in Dulbecco's Modified Eagle Medium (DMEM) high glucose without supplements. All experiments were performed at 37° C.
HepG2 cells (ATCC collection code HB-8065™) were cultured in 10 cm^2 culture dishes in DMEM high glucose medium supplemented with 10% fetal bovine serum (FBS) and 100 units/mL penicillin and 100 μg/mL streptomycin until approximately 90% confluence was reached. Immediately prior to performing the respirometric assay, the cells were washed with media without FBS, trypsinized and resuspended in DMEM high glucose without FBS.
The final concentration of intact cells in the O2k-chamber was 0.5·10^6/mL. After stabilization of respiration, the Complex I inhibitor, rotenone, at 1 μM final concentration was added to inhibit electron flux via Complex I. Then, compound to be tested was added at 10 μM final concentration, and the change in respiration rate of intact cells was monitored.

[1] = test system: frataxin deficient fibroblasts (GM03665); test: cells; assay type: cell-based
GM03665 cells = test: RSL3 Toxicity Assay (RSL3 Assay); assay type: cell-based, human
Protocol: In brief, GM03665 cells (Coriell Institute) were seeded in 96-well plates (Sarstedt) in DMEM cell culture media containing 10% Fetal Bovine serum and 1% Penicillin-Streptomycin (Pen-Strep) antibiotic mix at the amount of 2×10^4/mL (100 μL or 2×10^3 cells per well). Cells were left to rest overnight at 37° C. in a humidified atmosphere with 5% CO2 to allow attachment of the cells to the culture plate. Test compounds were prepared as DMSO stocks (10 mM) and were serially diluted in cell culture media to obtain 2× working solutions. Cell media was discarded and replaced by 50 μL of test compound solutions or cell media with vehicle for control wells. Within 15 minutes, 2× working solution (4 μM) of 1S,3R-RSL3 (CAS #1219810-16-8, Sigma-Aldrich) (diluted from 5 mM DMSO stock in cell culture media) was added. Final reaction volume was 100 μL and final DMSO concentration in reaction was kept below 0.2% (v/v) and equal in all wells. Final RSL3 concentration was 2 μM and test compound final concentrations in reaction were up to 1000 nM. After 24 hours of incubation cell viability was assessed by MTT test. MTT (Sigma-Aldrich) solution 1 mg/mL in 1×PBS (pH=7,4) was prepared 1 hour before the assay and filtered through Filtropur S 0.2 filters (Sarstedt). Cell media with test compounds was discarded and 100 μL of MTT solution was added to cells. The plates were incubated for 2 hours at +37° C. Thereafter, the MTT solution was removed and 100 μL of isopropanol was added to dissolve sediment. Absorption at 570 and 650 nm was measured using Hidex Sense microplate reader.

[2] = test system: HepG2 human hepatocarcinoma cells; test: Rotenone ATP Assay (Complex I Assay); assay type: cell-based; conditions: for activity in both the BSO Assay and the Rotenone ATP Assay, in words: BSO Assay and Rotenone ATP Assay taken together; for Rotenone ATP Assay EC50, nM: Table 7; for Complex I by-pass activity / restoring ATP production, in words: summary of rotenone assays
Protocol: This assay has been adapted from Haefeli R H, Erb M, Gemperli A C, Robay D, Courdier Fruh I, et al. (2011) NQO1-Dependent Redox Cycling of Idebenone: Effects on Cellular Redox Potential and Energy Levels. PLoS ONE 6(3): e17963. HepG2 human hepatocarcinoma cells were co-incubated with the electron transport chain Complex I toxin rotenone +/− compounds of interest and the corresponding effect on ATP synthesis was measured with a bioluminescent substrate.
In brief, HepG2 cells were plated at 25,000 cells per well in low glucose (1 gram/Liter) DMEM medium+10% fetal calf serum and incubated for 24 hours. The following day, the media was decanted and subsequently replaced with glucose free/serum free DMEM which has been supplemented with 50 micromolar rotenone and compound of interest. Serial dilutions of compound were prepared in 3× dilutions beginning at 25 micromolar. The cells were incubated for 60 minutes in a humidified tissue culture incubator. Following incubation, ATP levels were quantified via bioluminescent assay (Promega […] Glo Assay kit) and readings were captured on a standard microplate reader.
ATP bioluminescence is plotted versus the log of compound of interest and data were used to generate EC50 values. Curve fitting was performed using a sigmoidal dose response curve fit function (GraphPad Prism software).
Robustness of curve fit was assessed as a quality control measure, with an R squared value of at least 0.80 being required for a successful curve fit. Compounds of interest showing an increase in ATP bioluminescence relative to vehicle control were verified in an independent biological replicate of n=3 technical replicates per dose.
This assay is a direct measure of the ability of compounds of interest to restore ATP production under conditions of inhibition of Complex I of the mitochondrial electron transport chain. As the majority of ATP produced via the electron transport chain is thought to derive from Complex I activity, significant impairment in Complex I function has dire biological consequences. Of note, Complex I mutations are thought to drive pathophysiology in multiple mitochondrial diseases, including Leigh syndrome and Leber's Hereditary Optic Neuropathy (LHON), while diminished Complex I activity and the resultant attenuation of ATP production has been shown in neurodegenerative diseases, including Friedreich's Ataxia, Parkinson's Disease and Huntington's Disease.

Nrf-2 = Nrf-2 Activation Assay (Nrf-2 Assay); assay type: cell-based, human; conditions: for activation of Nrf-2 pathway, in words: FIG. 7; for Nrf-2 Assay: Table 7, 1 μM compound, 24 hours, qPCR of Nrf-2 responsive genes
Protocol: This assay was developed internally and was designed to determine if the novel test compounds disclosed herein active Nrf-2 and thereby promote resolution of inflammation by the mechanism believed to be responsible for the activity of omaveloxolone.
Briefly, GM03665 Friedreich Ataxia patient fibroblasts were grown in 12 Well Plates (TC Cell+F) (Sarstedt, Numbrecht Germany), at a density of […] in DMEM/F12 (Gibco, ThermoFisher Scientific, Waltham, MA, USA) cell media supplemented with 10% FBS and 1% Pen/Strep. Cells were left to rest overnight at 37° C. in a humidified atmosphere with 5% CO2 to allow attachment of the cells to the culture plate. Before continuing assay visual inspection of each well was done by light microscopy to detect any possible bacterial and fungal contamination. […] After incubation, cell media was removed and total RNA from the cells was isolated using E.Z.N.A.® Total RNA Kit I (Omega Bio-tek, Norcross, Georgia, USA) spin columns, and first-strand cDNA synthesis was carried out using a High Capacity cDNA Reverse Transcription Kit (Applied Biosystems™, Foster City, CA) following the manufacturer's instructions. qPCR analysis of gene expression was performed by mixing SYBR® Green Master Mix (Applied Biosystems™) with synthesized cDNA and forward and reverse primers. […] (60 cycles), and 95° C. for 60 seconds, followed by melt curve analysis at 72-95° C., 0.3° C./sec. The relative expression levels for each gene were calculated with the ΔΔCt method and normalized to the expression of REEP5 and SNRPD3 genes.

lipoxygenase-15 enzyme = lipoxygenase-15 enzyme (Glycine max (Soybean) (Glycine hispida), UniProt P08170); test: Lipoxygenase-15 Assay (LO-15 Assay); conditions: reduced form of compounds
[3] = HepG2, 50 micromolar rotenone, 60 minutes

Structure (SMILES) | activity in Rotenone Oxygraph Assay, in words (HepG2 cells) | Percent increase in ATP (Rotenone Oxygraph Assay), Mean (HepG2 cells) | Rotenone Oxygraph Assay % Increase (HepG2 cells) | activity in BSO assay (protection from BSO induced cell death), in words [1] | EC50 ([1]; Homo sapiens, Fibroblast, FA patient fibroblasts pretreated with compound, 10 mM BSO, 48 hrs, MTT, read-out: EC50 (nM) BSO Assay) [nM] | activity in RSL3 assay (protection from RSL3 induced ferroptosis), in words (GM03665 cells) | activity in both the BSO Assay and the Rotenone ATP Assay, in words [2] | pEC50 ([2]; Homo sapiens, 1 h, HepG2, 50 micromolar rotenone, 60 minutes, ATP bioluminescence, read-out: EC50 Rotenone ATP Assay) | Rotenone ATP Assay EC50, nM [2, 3] | Complex I by-pass activity / restoring ATP production, in words [2] | activation of Nrf-2 pathway, in words (Nrf-2) | Nrf-2 Assay (Nrf-2) | activity in LO-15 assay, in words (lipoxygenase-15 enzyme) | RSL3 Assay EC50, Mean (GM03665 cells; Table 3, 2 μM RSL3, 24 hours, MTT, mean of at least three measurements, unit printed in Table 7) | RSL3 Assay EC50, nM (GM03665 cells; Table 7, 2 μM RSL3, 24 hours, MTT)
CC(C)=CCC/C(C)=C/CC/C(C)=C/CC[C@@](C)(O)CCC1=C(C)C(=O)C(C)=C(C)C1=O (stereo in doubt) [Vatiquinone, reference compound] | inactive | Inactive | Inactive | ability to circumvent BSO induced cell death; also recorded: active | < 100 | active | do not possess both activities; also recorded: none of them are active in both assays | < 5.52 | Inactive | not |  |  |  |  | 
Cc1c(C)c2c(c(C)c1O)CC[C@@](C)(CCC=C(F)F)O2 [Compound 67, (R)-2-(4,4-difluorobut-3-en-1-yl)-2,5,7,8-tetramethylchroman-6-ol] |  |  |  |  |  |  | possess both activities |  |  |  |  |  |  |  | 
CC1=C(C)C(=O)C(CC[C@](C)(O)CC/C=C(\C)CC/C=C(\C)CCC=C2COC2)=C(C)C1=O [Compound E, 2-((R,6E,10E)-3-hydroxy-3,7,11-trimethyl-14-(oxetan-3-ylidene)tetradeca-6,10-dien-1-yl)-3,5,6-trimethylcyclohexa-2,5-diene-1,4-dione] |  |  | 37.9 +/− 10.7% | able to prevent ferroptotic cell death; also recorded: active |  | active; also recorded: able to prevent ferroptotic cell death | possess both activities |  |  | active | do not activate | Inactive | outside of the range of the assay |  | 
CC1=C(C)C(=O)C(CC[C@](C)(O)CC/C=C(\C)CCC=C(F)F)=C(C)C1=O [Compound H, (R,E)-2-(11,11-difluoro-3-hydroxy-3,7-dimethylundeca-6,10-dien-1-yl)-3,5,6-trimethylcyclohexa-2,5-diene-1,4-dione] |  |  | 54.3 +/− 13% | able to prevent ferroptotic cell death; also recorded: active |  | active; also recorded: able to prevent ferroptotic cell death |  |  |  | active | do not activate | Inactive | active; also recorded: effective inhibitors |  | 
COC1=C(OC)C(=O)C(CCCCCCCCCCO)=C(C)C1=O [Idebenone] |  |  | 70.2 +/− 15% | very weakly active/borderline inactive |  |  | do not possess both activities; also recorded: none of them are active in both assays |  |  | ability to restore ATP production when Complex I is inhibited; also recorded: active |  |  |  |  | 
CC1(C)CC[C@]2(NC(=O)C(C)(F)F)CC[C@]3(C)[C@H](C(=O)C=C4[C@@]5(C)C=C(C#N)C(=O)C(C)(C)[C@@H]5CC[C@]43C)[C@@H]2C1 [Omaveloxolone, reference compound] | inactive | Inactive | Inactive | ability to circumvent BSO induced cell death; also recorded: displayed anti-ferroptotic activity; also recorded: active |  |  | do not possess both activities; also recorded: none of them are active in both assays |  | Inactive | not | positive and does | Active |  | Inactive | Inactive
